Read-outs that look alike come from different tables or passages of the source.
How the values were obtained:
[1] = pig, in vivo, sc
Source text: Furthermore, systemic effects as bleeding were investigated by examination of all major tissues and organs.

[2] = Cumulative urine excretion of argatroban, by ecarin clotting time (ECT); assay type: in vivo; settings: pigs, s.c., similar for both formulations
Experimental: The blood samples were drawn into plastic tubes containing 3.13% sodium citrate before dosing and at definite time intervals thereafter. Then, blood samples were centrifuged (1000 g for 10 min) to obtain citrated plasma. Urine samples were also collected using a bladder catheter and frozen at −20°C until further analysis.
Furthermore, antithrombin activity in plasma samples was also determined by ecarin chromogenic assay (ECA).

[3] = cited from earlier work
[4] = cited from earlier work; remark: listed apart in the source
[5] = after subcutaneous administration

Compound | Local bleeding, toxic reactions, and other side effects [1] | administered antithrombotic active amount recovered in urine (cumulative) [2] | solubility in water [3] | half-life ([4]; administered intravenously) | half-life [4, 5] | period of stable plasma concentrations and antithrombotic activity [4, 5]
CC1CNc2c(cccc2S(=O)(=O)N[C@@H](CCCNC(=N)N)C(=O)N2CC[C@@H](C)C[C@@H]2C(=O)O)C1 (stereo partly drawn) [Argatroban] | not observed | 15–20% | about 1 mg·mL^−1 |  |  | 
hirudin |  |  |  | about 60 min | 2 h | approximately 12 hours
